Key:
Carbonic anhydrase 1 [1] = target: T1, Carbonic anhydrase 1 (Homo sapiens, UniProt P00915)
Description: Inhibition of human CA1 preincubated for 6 hrs by phenol red staining based stopped flow CO2 hydrase assay

Carbonic anhydrase 1 [2] = target: T1, Carbonic anhydrase 1; test: Inhibition of human CA1 by stopped flow CO2 hydrase assay
[3] = target: T2, Vascular endothelial growth factor receptor 2 (Homo sapiens, UniProt P35968); test: Inhibition of hypoxia induced VEGFR-2 (unknown origin)
Ehrlich [4] = conditions: dose 5 mg/kg; route ip; time 14 day
Description: Antitumor activity against mouse EAC cells implanted in Swiss albino mouse assessed as T/C ratio at 5 mg/kg, ip measured on day 5, 10 and 14

Ehrlich [5] = test: animal or person; conditions: Mus musculus, 336 h, read-out: GI
[6] = Cytotoxicity against African green monkey Vero cells under hypoxic condition by MTT assay; conditions: African green monkey (Chlorocebus sabaeus)
PANC-1 = test: Cytotoxicity against human PANC-1 cells under hypoxia condition by MTT assay; format: functional, cell-based
[7] = target: T2, Vascular endothelial growth factor receptor 2; test: Inhibition of VEGFR-2 (unknown origin)

T1 sequence (P00915 whole entry): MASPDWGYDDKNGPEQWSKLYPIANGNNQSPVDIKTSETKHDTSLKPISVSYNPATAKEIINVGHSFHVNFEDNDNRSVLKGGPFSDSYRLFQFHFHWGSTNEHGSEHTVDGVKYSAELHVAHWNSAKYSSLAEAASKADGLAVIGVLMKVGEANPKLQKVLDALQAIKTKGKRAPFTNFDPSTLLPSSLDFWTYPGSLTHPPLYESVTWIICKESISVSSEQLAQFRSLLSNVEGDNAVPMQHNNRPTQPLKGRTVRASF
T2 sequence (P35968 whole entry): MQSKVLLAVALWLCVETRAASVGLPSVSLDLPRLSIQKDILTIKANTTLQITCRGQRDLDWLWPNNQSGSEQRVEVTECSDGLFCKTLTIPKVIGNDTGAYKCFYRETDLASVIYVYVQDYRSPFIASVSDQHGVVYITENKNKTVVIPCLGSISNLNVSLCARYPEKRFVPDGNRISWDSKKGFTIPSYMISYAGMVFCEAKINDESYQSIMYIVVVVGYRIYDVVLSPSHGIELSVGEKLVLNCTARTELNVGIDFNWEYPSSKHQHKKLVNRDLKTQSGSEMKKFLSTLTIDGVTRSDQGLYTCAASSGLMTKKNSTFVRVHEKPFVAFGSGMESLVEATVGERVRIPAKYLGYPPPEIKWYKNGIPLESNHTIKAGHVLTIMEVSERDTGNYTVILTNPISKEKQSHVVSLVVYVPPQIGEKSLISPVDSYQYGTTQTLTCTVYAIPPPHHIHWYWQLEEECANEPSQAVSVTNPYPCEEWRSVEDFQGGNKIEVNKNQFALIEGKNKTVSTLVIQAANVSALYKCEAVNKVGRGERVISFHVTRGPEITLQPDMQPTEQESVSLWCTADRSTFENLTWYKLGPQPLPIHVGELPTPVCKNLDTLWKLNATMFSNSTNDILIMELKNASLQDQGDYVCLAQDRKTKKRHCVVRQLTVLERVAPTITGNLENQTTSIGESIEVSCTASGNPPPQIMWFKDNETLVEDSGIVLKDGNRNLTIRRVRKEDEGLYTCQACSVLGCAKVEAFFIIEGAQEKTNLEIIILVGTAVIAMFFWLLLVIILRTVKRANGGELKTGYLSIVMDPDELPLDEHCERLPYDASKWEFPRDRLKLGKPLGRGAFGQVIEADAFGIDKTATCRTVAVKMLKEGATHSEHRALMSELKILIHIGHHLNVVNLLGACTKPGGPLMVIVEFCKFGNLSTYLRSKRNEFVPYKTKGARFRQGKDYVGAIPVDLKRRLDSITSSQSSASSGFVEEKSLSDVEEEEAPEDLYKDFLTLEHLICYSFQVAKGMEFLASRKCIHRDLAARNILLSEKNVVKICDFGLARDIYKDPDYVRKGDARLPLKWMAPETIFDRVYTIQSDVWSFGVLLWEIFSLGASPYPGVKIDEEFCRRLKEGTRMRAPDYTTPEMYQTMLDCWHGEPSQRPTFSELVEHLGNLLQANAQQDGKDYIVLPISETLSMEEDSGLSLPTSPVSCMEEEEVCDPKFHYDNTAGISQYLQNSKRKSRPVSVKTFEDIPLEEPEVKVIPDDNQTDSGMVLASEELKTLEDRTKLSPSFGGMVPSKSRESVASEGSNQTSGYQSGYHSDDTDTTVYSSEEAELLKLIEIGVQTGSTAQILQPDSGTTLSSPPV

Ki (Carbonic anhydrase 1 [1]) [µM]	SMILES	other results
> 100	O=C(CN1C(=O)S/C(=C\c2cccs2)C1=O)c1cc2ccccc2oc1=O	
> 100	CCOc1cccc2cc(/C(C)=N/Nc3nc(-c4ccc(Br)cc4)cs3)c(=O)oc12	
> 100	CCOc1cccc2cc(/C(C)=N/Nc3nc(-c4cc5ccc(OC)cc5oc4=O)cs3)c(=O)oc12	
	Cc1nc(-c2cc3ccccc3oc2=O)ccc1C(=O)/C=C/c1cccs1	Ki (Carbonic anhydrase 1 [2]): 1.1 µM
> 100	CCOc1cccc2cc(/C(C)=N/Nc3nc(-c4ccc(F)cc4)cs3)c(=O)oc12	IC50 [3]: 0.0321 µM
> 100	CCOc1cccc2cc(/C(C)=N/Nc3nc(-c4ccc(OC)cc4)cs3)c(=O)oc12	IC50 [3]: 0.0348 µM
> 100	CCOc1cccc2cc(/C(C)=N/Nc3nc(-c4ccc([N+](=O)[O-])cc4)cs3)c(=O)oc12	
> 100	CCOc1cccc2cc(/C(C)=N/Nc3nc(-c4ccc(Cl)cc4)cs3)c(=O)oc12	
	COc1cccc2c1C(=O)c1c(O)c3c(c(O)c1C2=O)C[C@@](O)(C(=O)CO)C[C@@H]3O[C@H]1C[C@H](N)[C@H](O)[C@H](C)O1 [DOXORUBICIN]	T/C (Ehrlich [4]): 40.89; inhibition in vivo at 5 mg/kg (Ehrlich [5]): 67%; IC50 [6]: 8.7 µM; IC50 (PANC-1): 6.9 µM
> 100	CCOc1cccc2cc(/C(C)=N/Nc3nc(-c4ccccc4)cs3)c(=O)oc12	IC50 [3]: 0.0686 µM
	C/C(=N\NC(=S)Nc1ccc(Br)cc1)c1cc2ccccc2oc1=O	IC50 [7]: 0.082 µM
> 100	CCOc1cccc2cc(/C(C)=N/Nc3nc(-c4cc5cc(Br)ccc5oc4=O)cs3)c(=O)oc12	
> 100	CCOc1cccc2cc(/C(C)=N/Nc3nc(-c4ccc(C)cc4)cs3)c(=O)oc12	
> 100	CCOc1cccc2cc(/C(C)=N/Nc3nc(-c4cc5cccc(OCC)c5oc4=O)cs3)c(=O)oc12	

From ChEMBL document CHEMBL5506018, “Discovery and Mechanistic Studies of Dual-Target Hits for Carbonic Anhydrase IX and VEGFR-2 as Potential Agents for Solid Tumors: X-ray, In Vitro, In Vivo, and In Silico Investigations of Coumarin-Based Thiazoles” (J Med Chem, 2024)
